Experimental data from article PMC9250970, “Role of Helical Structure in MBP Immunodominant Peptides for Efficient IgM Antibody Recognition in Multiple Sclerosis” (Frontiers in Chemistry, 2022).
Entries after “also recorded” stand apart in the source; their conditions may differ.

Key:
[1] = NMR conformational analysis in DPC micelles; type: physicochemical; conditions: 1H NMR (chemical shift and NOE), 100 mM DPC-d38, 50 mM potassium phosphate pH 6.5, 10% D2O, 25°C; remaining regions random coil
Procedure: The samples for NMR spectroscopy were prepared by dissolving the appropriate amount of peptide in 50 mM potassium phosphate buffer (pH 6.5), 10% D2O, and 100 mM DPC-d38. NMR spectra were recorded on a Varian INOVA 600 MHz spectrometer equipped with a z-gradient 5 mm triple-resonance probe head. Spectra were recorded at a temperature of 25°C. The spectra were calibrated relative to TSP (0.00 ppm) as internal standard. One-dimensional (1D) NMR spectra were recorded in the Fourier mode with quadrature detection. The water signal was suppressed by gradient echo ([Hwang and Shaka, 1995]). 2D DQF-COSY ([Piantini et al., 1982]; [Marion and Wüthrich, 1983]), TOCSY ([Braunschweiler and Ernst, 1983]), and NOESY ([Jenner et al., 1979]) spectra were recorded in the phase-sensitive mode. Data block sizes were 2048 addresses in T2 and 512 equidistant T1 values. Before Fourier transformation, the time domain data matrices were multiplied by shifted sin2 functions in both dimensions. A mixing time of 70 ms was used for the TOCSY experiments. NOESY experiments were run with mixing time of 100 ms.

[2] = test system: anti-MBP protein IgM antibodies of MS serum; assay: Inhibition (competitive) ELISA, MBP protein coated; type: binding, human; conditions: tested MS serum; peptides 1 and 2 as inhibitors
Source text: (§1) Fifteen Multiple Sclerosis (MS) patients were recruited in the Multiple Sclerosis Clinical Care and Research Centre, Department of Neurosciences, Reproductive Sciences and Odontostomatology, Federico II University (Naples, Italy). The relapsing-remitting MS (RR-MS) patients were previously diagnosed after a lumbar puncture, cerebrospinal fluid analysis, and MRI examination and fulfilled the established international diagnostic criteria ([Polman et al., 2011]; [Thompson et al., 2018]). The present study was conducted in accordance with the Declaration of Helsinki. The performed experimental protocols were approved by the Ethics Committee 2006 (protocol n. 120/06) and 2017 (protocol n. 160/17). […]
(§2) Nunc-Immuno MicroWell 96 well polystyrene ELISA plates (NUNC Maxisorb, product code M9410, Merck, Milan, Italy) were coated with a solution 10 μg/ml of the peptide antigens in pure carbonate buffer 0.05 M (pH 9.6) adding 100 μL/well, and microplates were incubated at 4°C overnight. […] Antibody affinity was measured following the competitive ELISA previously reported ([Real-Fernández et al., 2015]). Semi-saturating sera dilution was previously calculated in preliminary titration curves (absorbance 0.7). […] After approximately 30 min, the reaction was stopped with 1 M NaOH solution (50 μL/well), and the absorbance was read in a multichannel ELISA reader (Tecan Sunrise, Männedorf, Switzerland) at 405 nm. […]

[3] = test system: IgM antibodies in MS patient sera; assay: Solid-phase ELISA (SP-ELISA), IgM; type: binding, human; conditions: peptide coated 10 μg/ml; for patients in whose serum IgM antibodies were detected: 1 out of 15 patients, sera 1:100; for IgM antibody detection (in words): fifteen MS patient sera 1:100, carbonate buffer pH 9.6, anti-human IgM 1:200, 405 nm
Source text: Fifteen Multiple Sclerosis (MS) patients were recruited in the Multiple Sclerosis Clinical Care and Research Centre, Department of Neurosciences, Reproductive Sciences and Odontostomatology, Federico II University (Naples, Italy). The relapsing-remitting MS (RR-MS) patients were previously diagnosed after a lumbar puncture, cerebrospinal fluid analysis, and MRI examination and fulfilled the established international diagnostic criteria ([Polman et al., 2011]; [Thompson et al., 2018]). The present study was conducted in accordance with the Declaration of Helsinki. The performed experimental protocols were approved by the Ethics Committee 2006 (protocol n. 120/06) and 2017 (protocol n. 160/17). Blood samplings were performed during the routine follow-up of patients, while the healthy control samplings were carried out during routine health checks or blood donations. Sera samples were obtained for diagnostic purposes from patients and healthy controls who had given their informed consent. Blood samples were centrifuged at 4,000 rpm for 10 min and sera supernatant was stored at -20°C until use.
Immunoassays were performed to evaluate IgM or IgG antibodies in sera by SP-ELISA. At this purpose, the synthetic antigens were coated on 96-well plates (NUNC Maxisorb, product code M9410, Merck, Milan, Italy). Coating conditions were set-up independently for each peptide and results are reported in the Supplementary Material. Polystyrene 96-well ELISA plates were coated with 100 μL/well of a 10 μg/ml solution of synthetic peptide antigens 1-6 diluted in pure carbonate buffer 0.05 M (pH 9.6), independently. After overnight incubation at 4°C, plates were washed (3×) using washing buffer. Nonspecific binding sites were blocked with 100 μL/well of fetal bovine serum buffer (10% FBS in washing buffer) at room temperature for 1 h. FBS buffer was removed, and plates were incubated overnight at 4°C with sera (diluted 1:100 in FBS buffer, 100 μL/well). After three washes, plates were treated with 100 μL/well of anti-human IgG or IgM alkaline phosphatase-conjugated specific antibodies diluted in FBS buffer 1:3,000 (IgG) and 1:200 (IgM) for all tested antigens. […] Colorimetric reaction was carried out adding 100 μl of substrate reaction solution (1 mg/ml pNPP, MgCl2 0.01 M in carbonate buffer, pH 9.6) to each well and plates were read at 405 nm using a TECAN plate reader. After 30 min, the reaction was stopped with 1 M NaOH solution (50 μL/well) and the absorbance was read in a multichannel ELISA reader (Tecan Sunrise, Männedorf, Switzerland) at 405 nm. Antibody titer values were calculated as (mean Abs of serum triplicate)—(mean Abs of blank triplicate) representing graphically the calculated mean values. […]

[4] = Circular dichroism (secondary structure); type: physicochemical; conditions: for % helix / effect of temperature on secondary structure / self-aggregation (in words) / secondary structure (in words) / effect of temperature on secondary structure (in words): CD; for % helix: H2O:TFE (50:50, v:v); for effect of temperature on secondary structure / self-aggregation (in words): PBS pH 7.4, 10 to 60°C in increments of 5°C; for effect of temperature on secondary structure (in words): Supplementary Figures S14, S15, various temperatures (10 to 60°C)
Procedure: CD spectra were recorded on JASCO J-815 with increasing temperature from 10 to 60°C in increments of 5°C between λ = 270 and 185 nm. The CD measurements were carried out in H2O, a mixture of H2O:TFE (50:50, v:v) and PBS (phosphate buffered saline, pH 7.4, containing: sodium chloride, potassium chloride, sodium phosphate dibasic, potassium phosphate monobasic). The spectra were registered with the following parameters: 0.2 nm resolution, 1.0 nm bandwidth, 20 mdeg sensitivity, 0.25 s response, 100 nm min^−1 scanning speed, 5 scans, and 0.02 cm cuvette path length. The CD spectra of solvents were recorded and subtracted from the raw data. The spectra were corrected by a baseline that was measured with the identical solvent in the same cell. The CD intensity is given as mean residue molar ellipticity (θ) [deg × cm^2 × dmol^−1].

[5] = test system: IgG antibodies in MS patient sera; assay: Solid-phase ELISA (SP-ELISA), IgG; type: binding; conditions: fifteen MS patient sera 1:100; peptide coated 10 μg/ml, carbonate buffer pH 9.6; anti-human IgG 1:3,000; 405 nm
Source text: as §1
Immunoassays were performed to evaluate IgM or IgG antibodies in sera by SP-ELISA. […] Colorimetric reaction was carried out adding 100 μl of substrate reaction solution (1 mg/ml pNPP, MgCl2 0.01 M in carbonate buffer, pH 9.6) to each well and plates were read at 405 nm using a TECAN plate reader. After 30 min, the reaction was stopped with 1 M NaOH solution (50 μL/well) and the absorbance was read in a multichannel ELISA reader (Tecan Sunrise, Männedorf, Switzerland) at 405 nm. Antibody titer values were calculated as (mean Abs of serum triplicate)—(mean Abs of blank triplicate) representing graphically the calculated mean values. […]

[6] = test system: anti-MBP (76–116) IgM antibodies of MS serum; assay: Inhibition (competitive) ELISA, MBP (76–116) (2) coated; type: binding, human
Source text: as §1, §2

Row | % helix ([4]; 25°C) [%] | secondary structure (in words) ([4]; PBS pH 7.4, 25°C) | secondary structure (in words) ([4]; water, 25°C) | minimum of CD spectrum attributed to beta structures (aggregation) ([4]; PBS pH 7.4, increasing temperature, temperature-induced self-aggregation) | Sequence | helical structure, residues [1] | inhibition of IgM antibody binding to MBP protein (in words) [2] | patients in whose serum IgM antibodies were detected [3] [%] | IgM antibody detection (in words) [3] | effect of temperature on secondary structure / self-aggregation (in words) [4] | effect of temperature on secondary structure (in words) [4] | IgG antibody reactivity (in words) [5] | affinity of IgMs in competitive ELISA, fold greater than longer analogue MBP (76–116) (2) ([6]; competitive ELISA, MS serum, compared to the longer analogue) [fold] | antibody affinity/recognition in competitive experiment (in words) ([6]; solution conditions of the competitive experiments, peptide 1 vs. peptide 2)
1 | 3 | random coil structures | randomly structured in water solution | about 205 nm | SQHGRTQDENPVVHFFKNIVTPRTPPPSQGKGRGLSLSRFS [MBP (76–116) (2), elongated synthetic peptide, fragment 76–116 of myelin basic protein] | 87–96 | able to inhibit IgM antibody binding to MBP protein in the tested MS serum with comparable IC50 | 7 | IgM antibodies were detected in one representative patient serum; also recorded: able to detect a high, stable, and reproducible IgM antibody titer | shift of the minimum to lower wavelength and a strong decrease of the signal intensity; also recorded: temperature-induced peptide self-aggregation, likely in beta structures | no spectral differences of secondary peptide structure at various temperatures |  |  | 
2 |  |  |  |  | TPPPSQGK [MBP (99–106) (6)] |  |  |  |  |  |  | nonspecific IgG antibody reactivity |  | 
3 | 14 |  | randomly structured in water solution |  | TQDENPVVHFFKNIVTPRTPPPSQGK [MBP (81–106) (1), synthetic peptide, fragment 81–106 of myelin basic protein, covering the immunodominant region] | 87–96 | able to inhibit IgM antibody binding to MBP protein in the tested MS serum with comparable IC50 | 7 | slightly recognized IgGs and IgMs | no differences of secondary structure at various temperatures | no spectral differences of secondary peptide structure at various temperatures | To a lesser extent, also against peptide MBP (81–106) (1); also recorded: slightly recognized IgGs and IgMs | 4 | recognized more efficiently by antibodies in the solution conditions of the competitive experiments
